Data on four compounds can be found in patent publication US6403630B1, “Treating cancers associated with overexpression of HER-2/neu” (Cornell Research Foundation, Inc., priority 1999, dated 2002).

The subject of assay [1] is COX-2 in 184B5/HER cells. Description: Amounts of COX-2 in 184B5/HER cells after treatment with MAP kinase inhibitors. Format: cell-based, human. An excerpt: The cells used were 184B5 and 184B5/HER cell lines. They were obtained from a collaborator. The 184B5 cell line is an immortalized but nontumorogenic human breast epithelial cell line that was established from a reduction mammoplasty and is described in Stampfer, M. R., et al., Proc. Natl. Acad. Sci. USA 82, 2394-2398 (1985). The 184B5/HER cell line was derived by stably transfecting 184B5 cells with a mutationally activated human HER-2/neu oncogene; these cells form rapidly growing tumors when injected into athymic nude mice. The 184B5/HER cell line is described in Pierce, J. H., et al., Oncogene 6, 1189-1194(1991). Cells were maintained in MEM (from Life Technologies, Inc. of Grand Island, N.Y.)—KBM, i.e., kerotinocyte basal medium (from Clonetics Corp. of San Diego, Calif.), mixed in a ratio of 1:1. […]
Western blotting was carried out to determine whether the differences in PGE2 production were related to differences in amounts of COX enzymes. […] The protein concentration of the supernatant was measured as described in Lowry, O. H., et al., J. Biol. Chem. 193, 265-275 (1951). […]
The activity of p44/42 MAP kinase was measured using a nonradioactive method where the assay was performed with a p44/42 MAP kinase activity kit obtained from New England Biolabs (of Beverly, Mass.) using the manufacturer's instructions. […]

The subject of assay [2] is HER-2/neu positive colon cancer. Put plainly: Treatment of a patient after resection of HER-2/neu positive colon cancer. Format: in vivo, human. Particulars: cancer localized to bowel wall, oral Celebrex 400 mg twice a day or Vioxx 50 mg per day for five years. How it is done: A patient undergoes resection of colon cancer which proves to be HER-2/neu positive. The colon cancer is found to be localized to the bowel wall; there is no evidence of extracolonic cancer. The patient is treated with Celebrex® at oral dose of 400 mg twice a day for five years or an oral dose of Vioxx® at 50 mg per day for five years.

Assay [3] has as its system HER-2/neu positive breast cancer. Description: Adjuvant therapy of a patient with HER-2/neu positive breast cancer. The format is in vivo, human. Here is the method: A patient with HER-2/neu positive breast cancer is treated with Celebrex® for adjuvant therapy at an oral dose of 400 mg twice a day for five years after a mastectomy. […] The same result is obtained when the Celebrex® is replaced with an oral dose of 50 mg per day of Vioxx® for five years.
The patient also received an oral dose of 400 mg Celebrex® twice daily for one year or an oral dose of 50 mg Vioxx® daily for one year.

Assay [4] concerns HER-2/neu positive breast cancer that has metastasized. Description: Treatment of a patient with metastasized HER-2/neu positive breast cancer. Format: in vivo, human. Here is the method:
Breast cancer is determined to have metastasized to lung and liver three years after a mastectomy is performed on a patient with HER-2/neu positive breast cancer. The patient is treated with oral doses of Celebrex® of 400 mg twice a day or of Vioxx® of 50 mg per day.
After three months, the Celebrex® or Vioxx® was continued in combination regimen with Taxol® at a dose of 175 mg/m^2 administered intravenously every three weeks.
Breast cancer is determined to have metastasized to bone nine years after a mastectomy is performed on a patient with HER-2/neu positive breast cancer.
After 90 days, oral cyclophosphamide at a dose of 3 mg/kg/day and doxoribicin administered intravenously weekly at a dose of 20 mg/m^2, are added to the drug regimen.

The mark [5] stands for this setting: adjuvant therapy alone, oral, five years after a mastectomy (Celebrex 400 mg twice a day; Vioxx 50 mg per day).
[6] abbreviates: adjuvant therapy with HERCEPTIN (250 mg IV loading, 10 weekly 125 mg IV), oral Celebrex 400 mg twice daily or Vioxx 50 mg daily for one year.
[7] abbreviates: metastasized to bone, after failure of prior chemotherapy, oral Celebrex 400 mg twice a day or Vioxx 50 mg per day plus HERCEPTIN
The mark [8] stands for this setting: metastasized to bone, after 90 days oral cyclophosphamide 3 mg/kg/day and weekly IV doxorubicin 20 mg/m^2 added to the COX-2 inhibitor plus HERCEPTIN regimen.
Where [9] appears, read: metastasized to lung and liver, after three months continued in combination with Taxol 175 mg/m^2 IV every three weeks.
[10] abbreviates: metastasized to lung and liver, oral Celebrex 400 mg twice a day or Vioxx 50 mg per day alone.

Consider `Oc1ccc(-c2nc(-c3ccc(F)cc3)c(-c3ccncc3)[nH]2)cc1` [SB 202190, 4-(4-fluorophenyl)-2-(4-hydroxyphenyl)-5-(4-pyridyl)-1H-imidazole], for which the “amounts of COX-2” value in assay [1] was “down-regulated”.

Consider `COc1cccc(-c2cc(=O)c3ccccc3o2)c1N` [PD 98059, 2′-amino-3′-methoxyflavone], for which the “amounts of COX-2” value in assay [1] is listed as “decrease”.

With `Cc1ccc(-c2cc(C(F)(F)F)nn2-c2ccc(S(N)(=O)=O)cc2)cc1` [Celebrex®, 4-[5-(4-Methylphenyl)-3-(trifluoromethyl)-1H-pyrazol-1-yl]benzenesulfonamide], the “Recurrence of colon cancer” value in assay [2] was “does not occur”. Also, the “Recurrence of breast cancer” value in assay [3] (setting [5]) and in assay [3] (setting [6]) was “does not occur” throughout. In addition, the tumor burden result is on record as “reduced tumor burden” in assay [4] (setting [7]), “still further reduced tumor burden” in assay [4] (setting [8]), “further reduced tumor burden” in assay [4] (setting [9]) and “reduced tumor burden” in assay [4] (setting [10]).

With `CS(=O)(=O)c1ccc(C2=C(c3ccccc3)C(=O)OC2)cc1` [Vioxx®, 3-(Phenyl)-4-(4-(methylsulfonyl)phenyl)-2-(5H)-furanone], the “Recurrence of colon cancer” value in assay [2] is “does not occur”. For the same compound, the “Recurrence of breast cancer” value in assay [3] (setting [5]) and in assay [3] (setting [6]) was “does not occur” in each case. Also, the tumor burden result in assay [4] (setting [7]) is “reduced tumor burden”; in assay [4] (setting [8]) it was “still further reduced tumor burden”; in assay [4] (setting [9]) it was “further reduced tumor burden”; in assay [4] (setting [10]) it was “reduced tumor burden”.
